Data: patent US20170150719A1, “FUNGICIDAL PYRAZOLES AND THEIR MIXTURES” (E I DU PONT DE NEMOURS AND COMPANY, priority 2010, published 2017)
Marks after values point to notes of the source that are not given here.

Assays:
Septoria tritici = experiment: Test F: wheat leaf blotch, preventive spray on wheat seedlings, visual disease rating; type: in vivo; parameters: Test F rating (disease control), value marked *: concentration or dose not given beside the values; details: for Test F rating (% disease control): preventive spray, rating without asterisk; for Test F rating (% disease control) / Test F rating (disease control) / pest or weed control at 200 µg/mL: 100 = 100% disease control; for Test F rating (disease control) / pest or weed control at 200 µg/mL: 0 = no disease control relative to the controls; for pest or weed control at 200 µg/mL: Zymoseptoria tritici
From the text: (§1) A hyphen (-) indicates no test results.

[1] = test system: Puccinia recondita f. sp. tritici; experiment: Test G: wheat leaf rust, spray after inoculation (curative) on wheat seedlings, visual disease rating; type: in vivo; details: for Test G rating (% disease control): spray after inoculation, rating without asterisk; for Test G rating (% disease control) / Test G rating (disease control) / pest or weed control at 200 µg/mL: 100 = 100% disease control; for Test G rating (disease control) / pest or weed control at 200 µg/mL: 0 = no disease control
From the text: as §1

[2] = test system: Puccinia recondita f. sp. tritici; experiment: Test H: wheat leaf rust, preventive spray on wheat seedlings, visual disease rating; details: for Test H rating (% disease control): preventive spray, rating without asterisk; for Test H rating (% disease control) / Test H rating (disease control) / pest or weed control at 200 µg/mL: 100 = 100% disease control; for Test H rating (disease control): sprayed the day before inoculation; for Test H rating (disease control) / pest or weed control at 200 µg/mL: 0 = no disease control; for pest or weed control at 200 µg/mL: read-out: Test H rating (disease control), wheat leaf rust, sprayed the day before inoculation
Botrytis cinerea = experiment: Test A: tomato Botrytis, preventive spray on tomato seedlings, visual disease rating; details: for Test A rating (% disease control): preventive spray, 0 = no control relative to controls, rating without asterisk; for Test A rating (% disease control) / Test A rating (disease control) / pest or weed control at 200 µg/mL: 100 = 100% disease control; for Test A rating (disease control) / pest or weed control at 200 µg/mL: 0 = no disease control relative to the controls; for pest or weed control at 200 µg/mL: Botrytis cinerea, in Solanum lycopersicum, read-out: Test A rating (disease control), tomato Botrytis
Alternaria solani = experiment: Test B: tomato early blight, preventive spray on tomato seedlings, visual disease rating; details: for Test B rating (% disease control): preventive spray, rating without asterisk; for Test B rating (% disease control) / Test B rating (disease control): 100 = 100% disease control; for Test B rating (disease control): 0 = no disease control relative to the controls; for pest or weed control at 200 µg/mL: Alternaria solani, in Solanum lycopersicum, read-out: Test B rating (disease control)
[3] = test system: Blumeria graminis f. sp. tritici; experiment: Test I: wheat powdery mildew, preventive spray on wheat seedlings, visual disease rating; details: for Test I rating (% disease control) / Test I rating (disease control) / Test I rating (disease control), value marked *: wheat powdery mildew; for Test I rating (% disease control): preventive spray, rating without asterisk; for Test I rating (% disease control) / Test I rating (disease control) / pest or weed control at 200 µg/mL: 100 = 100% disease control; for Test I rating (disease control) / pest or weed control at 200 µg/mL: 0 = no disease control relative to the controls; for pest or weed control at 200 µg/mL: Blumeria graminis, in Triticum aestivum, read-out: Test I rating (disease control), wheat powdery mildew; for Test I rating (disease control), value marked *: rating marked with asterisk (*), not explained in the text shown
Septoria nodorum = experiment: Test E: Septoria glume blotch, preventive spray on wheat seedlings, visual disease rating; details: for Test E rating (% disease control): Septoria glume blotch on wheat, preventive spray, rating without asterisk; for Test E rating (% disease control) / Test E rating (disease control) / pest or weed control at 200 µg/mL: 100 = 100% disease control; for Test E rating (disease control) / pest or weed control at 200 µg/mL: 0 = no disease control relative to the controls; for pest or weed control at 200 µg/mL: Parastagonospora nodorum, in Triticum aestivum, read-out: Test E rating (disease control), Septoria glume blotch

Row | SMILES | Test F rating (disease control) (Septoria tritici) [%] | Test G rating (disease control) ([1]; sprayed after inoculation) [%] | Test H rating (disease control) ([2]; wheat leaf rust) [%] | Test A rating (disease control) (Botrytis cinerea; tomato Botrytis) [%] | Test B rating (disease control) (Alternaria solani; tomato early blight) [%] | Test I rating (disease control) [3] [%] | Test E rating (disease control) (Septoria nodorum; Septoria glume blotch) [%] | also measured
1 | Cc1nn(C)c(Nc2c(F)cc(F)cc2Cl)c1-c1ccc(Cl)cc1F [compound 228] |  |  |  |  |  |  |  | Test F rating (% disease control) (Septoria tritici): 100%; Test G rating (% disease control) [1]: 0%; Test H rating (% disease control) ([2]; wheat leaf rust): 96%; Test A rating (% disease control) (Botrytis cinerea; tomato Botrytis): 68%; Test B rating (% disease control) (Alternaria solani; tomato early blight): 40%; Test I rating (% disease control) [3]: 81%; Test E rating (% disease control) (Septoria nodorum): 0%
2 | Cc1nn(C)c(Nc2ccc(C#N)cc2F)c1-c1ccc(F)cc1F [compound 68] | 100 | 0 | 80 | 99 | 51 | 100 | 0 | 
3 | Cc1nn(C)c(Nc2c(F)cc(F)cc2F)c1-c1ccc(F)cc1Cl [Compound 4, 4-(2-chloro-4-fluorophenyl)-1,3-dimethyl-N-(2,4,6-trifluorophenyl)-1H-pyrazol-5-amine] |  |  |  |  |  |  |  | pest or weed control at 200 µg/mL (Septoria tritici): 95%; pest or weed control at 200 µg/mL ([1]; sprayed after inoculation): 99%; pest or weed control at 200 µg/mL [2]: 100%; pest or weed control at 200 µg/mL (Botrytis cinerea): 99%; pest or weed control at 200 µg/mL (Alternaria solani): 100%; pest or weed control at 200 µg/mL [3]: 100%; pest or weed control at 200 µg/mL (Septoria nodorum): 99%
4 | Cc1nn(C)c(Nc2ccc(Br)cc2Cl)c1-c1ccc(F)cc1Br [compound 173] | 100 | 0 | 99 | 100 | 0 | 99 | 40 | 
5 | Cc1nn(C)c(Nc2c(F)cc(F)cc2F)c1-c1ccccc1F [compound 53] | 100 | 0 | 95 | 97 | 99 | 99 | 87 | 
6 | Cc1nn(C)c(Nc2c(F)cc(F)cc2F)c1-c1c(F)cccc1F [compound 89] | 100 | 9 | 99 | 100 | 99 | 100 | 82 | 
7 | Cc1nn(C)c(Nc2c(F)cc(F)cc2Cl)c1-c1ccc(F)cc1Br [Compound 84, 4-(2-bromo-4-fluorophenyl)-N-(2-chloro-4,6-difluorophenyl)-1,3-dimethyl-1H-pyrazol-5-amine] |  |  |  |  |  |  |  | pest or weed control at 200 µg/mL (Septoria tritici): 100%; pest or weed control at 200 µg/mL ([1]; sprayed after inoculation): 92%; pest or weed control at 200 µg/mL [2]: 100%; pest or weed control at 200 µg/mL (Botrytis cinerea): 100%; pest or weed control at 200 µg/mL (Alternaria solani): 99%; pest or weed control at 200 µg/mL [3]: 100%; pest or weed control at 200 µg/mL (Septoria nodorum): 96%
8 | COc1cc(F)c(Nc2c(-c3c(F)cc(OC)cc3F)c(C)nn2C)c(F)c1 [compound 21] | 99 | 99 | 96 | 100 | 100 | 94 | 89 | 
9 | COc1cc(Cl)c(Nc2c(-c3ccc(F)cc3Br)c(C)nn2C)c(Cl)c1 [compound 102] | 98 | 0 | 94 | 98 | 0 |  | 0 | Test I rating (disease control), value marked * [3]: 95* %
10 | COc1ccc(-c2c(C)nn(C)c2Nc2c(F)cc(Cl)cc2Cl)c(Cl)c1 [compound 201] |  |  |  |  |  |  |  | Test F rating (% disease control) (Septoria tritici): 100%; Test G rating (% disease control) [1]: 98%; Test H rating (% disease control) ([2]; wheat leaf rust): 100%; Test A rating (% disease control) (Botrytis cinerea; tomato Botrytis): 100%; Test B rating (% disease control) (Alternaria solani; tomato early blight): 100%; Test I rating (% disease control) [3]: 97%; Test E rating (% disease control) (Septoria nodorum): 99%
11 | Cc1nn(C)c(Oc2c(F)cc(C#N)cc2F)c1-c1ccccc1F [compound 91] | 100 | 0 | 99 | 99 | 99 | 99 | 94 | 
12 | Cc1nn(C)c(C(O)c2ccc(F)cc2F)c1-c1ccc(F)cc1Cl (stereo not drawn) [Compound 122, 4-(2-chloro-4-fluorophenyl)-α-(2,4-difluorophenyl)-1,3-dimethyl-1H-pyrazole-5-methanol] |  |  |  |  |  |  |  | pest or weed control at 200 µg/mL (Septoria tritici): 100%; pest or weed control at 200 µg/mL ([1]; sprayed after inoculation): 96%; pest or weed control at 200 µg/mL [2]: 100%; pest or weed control at 200 µg/mL (Botrytis cinerea): 100%; pest or weed control at 200 µg/mL (Alternaria solani): 99%; pest or weed control at 200 µg/mL [3]: 99%; pest or weed control at 200 µg/mL (Septoria nodorum): 92%
13 | Cc1nn(C)c(Nc2c(Cl)cc(F)cc2Cl)c1-c1ccc(Cl)cc1Cl [compound 132] | 99 | 0 | 96 | 93 | 0 | 43 | 0 | 
14 | Cc1nn(C)c(Nc2c(F)cc(Cl)cc2Cl)c1-c1ccc(F)cc1F [Compound 141, N-(2,4-dichloro-6-fluorophenyl)-4-(2,4-difluorophenyl)-1,3-dimethyl-1H-pyrazol-5-amine] |  |  |  |  |  |  |  | pest or weed control at 200 µg/mL (Septoria tritici): 100%; pest or weed control at 200 µg/mL ([1]; sprayed after inoculation): 97%; pest or weed control at 200 µg/mL [2]: 100%; pest or weed control at 200 µg/mL (Botrytis cinerea): 99%; pest or weed control at 200 µg/mL (Alternaria solani): 99%; pest or weed control at 200 µg/mL [3]: 100%; pest or weed control at 200 µg/mL (Septoria nodorum): 99%
15 | COc1cc(F)c(-c2c(C)nn(C)c2Oc2c(F)cc(Br)cc2F)c(F)c1 [compound 24] | 100 | 0 | 98 | 99 | 95 | 100 | 84 | 
16 | COc1ccc(-c2c(C)nn(C)c2Oc2ccc(C#N)cc2Cl)c(Cl)c1 [compound 93] | 100 | 0 | 99 | 100 | 0 | 91 | 60 | 
17 | Cc1nn(C)c(Nc2c(F)cc(Br)cc2F)c1-c1ccc(F)cc1Br [compound 163] |  |  |  |  |  |  |  | Test F rating (disease control), value marked * (Septoria tritici; rating marked with asterisk (*), other test condition, not explained in the text shown): 100* %; Test G rating (disease control), value marked * ([1]; sprayed after inoculation, rating marked with asterisk (*), not explained in the text shown): 91* %; Test H rating (disease control), value marked * ([2]; wheat leaf rust, preventive, rating marked with asterisk (*), not explained in the text shown): 100* %; Test A rating (disease control), value marked * (Botrytis cinerea; tomato Botrytis, rating marked with asterisk (*), other test condition, not explained in the text shown): 100* %; Test B rating (disease control), value marked * (Alternaria solani; tomato early blight, rating marked with asterisk (*), other test condition, not explained in the text shown): 77* %; Test I rating (disease control), value marked * [3]: 100* %; Test E rating (disease control), value marked * (Septoria nodorum; Septoria glume blotch, rating marked with asterisk (*), other test condition, not explained in the text shown): 60* %
18 | Cc1nn(C)c(Nc2c(F)cc(F)cc2Br)c1-c1ccc(F)cc1I [compound 226] |  |  |  |  |  |  |  | Test F rating (% disease control) (Septoria tritici): 100%; Test G rating (% disease control) [1]: 0%; Test H rating (% disease control) ([2]; wheat leaf rust): 99%; Test A rating (% disease control) (Botrytis cinerea; tomato Botrytis): 97%; Test B rating (% disease control) (Alternaria solani; tomato early blight): 97%; Test I rating (% disease control) [3]: 100%; Test E rating (% disease control) (Septoria nodorum): 60%
19 | Cc1nn(C)c(Nc2ccc(F)cc2I)c1-c1ccc(F)cc1F [compound 175] | 100 | 41 | 100 | 100 | 97 | 100 | 73 | 
